These are literature values, as cited in patent US20100136096A1, “Systems for modulating inflammation” (Searete LLC, a limited liability corporation of the State …, priority 2008, published 2010).

Structures are written as SMILES.

One data set concerns Src family kinase. To be noted: Sanjuan et al. 2006.
The test system of another data set is lethal septic shock. To be noted: mice; Nakamura et al. 2007.
For data set [1] the following is noted: single agent, 400 mg infused over one hour; Looareesuwan et al. 1986.
The subject of data set [2] is Src family kinases (Src, Lck, Yes, Fyn). The conditions noted are these: at nanomolar concentrations.
The subject of a further data set is proteasomal activity. The conditions noted are these: cultured breast cancer cells; disulfiram bound to copper; Chen et al. 2006.

With `CCN(CC)CCCC(C)Nc1ccnc2cc(Cl)ccc12` (stereo not drawn) [Chloroquine], the “inhibition of CpG-induced Src family kinase activation, or its dependent cellular responses” value in the data set with Src family kinase is reported as “does not inhibit”.
`Cl.Cl.Nc1ccccc1Oc1ccc2c(N)nsc2c1` [Example M62812, 3-amino-6-(2-aminophenoxy)-1,2-benzisothiazole dihydrochloride]: the “prevention of lethal septic shock” value in the data set with lethal septic shock was “prevents lethal septic shock”.
`CCN(CC)CCCC(C)Nc1ccnc2cc(Cl)ccc12.O=P(O)(O)O.O=P(O)(O)O` (stereo not drawn) [chloroquine phosphate, 7-chloro-4-[[4-(diethylamino)-1-methylbutyl]amino]quinoline phosphate (1:2)]: the “tolerability of intravenous infusion” value in data set [1] is reported as “without complication”.
Regarding `Cc1nc(Nc2ncc(C(=O)Nc3c(C)cccc3Cl)s2)cc(N2CCN(CCO)CC2)n1.O` [dasatinib, N-(2-chloro-6-methylphenyl)-2-[[6-[4-(2-hydroxyethyl)-1-piperazinyl]-2-methyl-4-pyrimidinyl]amino]-5-thiazolecarboxamide, monohydrate], the “inhibition of Src family kinases (Src, Lck, Yes, Fyn)” value in data set [2] is listed as “inhibits”.
With `CCN(CC)C(=S)SSC(=S)N(CC)CC` [disulfiram, 1-(diethylthiocarbamoyldisulfanyl)-N,N-diethyl-methanethioamide], the “inhibition of aldehyde dehydrogenase” value in the data set on aldehyde dehydrogenase is reported as “inhibits aldehyde dehydrogenase without toxicity”. For the same compound, the proteasomal activity entry in the data set on proteasomal activity was “inhibits proteasomal activity”.
